The first experiment deals with truncated Polθ protein (Polθ-Hel containing the helicase domain (67-894)) (Homo sapiens (Human), UniProt O75417). In words: Polθ ATPase assay (Biological Assay 1, ADP-Glo luminescence). It is filed as biochemical. Conditions: Polθ-Hel 0.5 nM, DNA substrate 500 nM, ATP 60 μM, 23° C.; read-out: Pole ATPase assay IC50. A digest of the protocol: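 Polθ-Hel (0.5 nM) with 500 nM ssDNA oligo in pH 8.8 Tris buffer (5 mM MgCl2, 1 mM DTT) was preincubated with compound 30 min at 23 °C. The reaction ran 60 min after 60 μM ATP was added (stated as the added solution, not final). ADP formed was detected by ADP-Glo luminescence to derive IC50.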
Chain of truncated Polθ protein (Polθ-Hel containing the helicase domain (67-894)) (O75417 67-894): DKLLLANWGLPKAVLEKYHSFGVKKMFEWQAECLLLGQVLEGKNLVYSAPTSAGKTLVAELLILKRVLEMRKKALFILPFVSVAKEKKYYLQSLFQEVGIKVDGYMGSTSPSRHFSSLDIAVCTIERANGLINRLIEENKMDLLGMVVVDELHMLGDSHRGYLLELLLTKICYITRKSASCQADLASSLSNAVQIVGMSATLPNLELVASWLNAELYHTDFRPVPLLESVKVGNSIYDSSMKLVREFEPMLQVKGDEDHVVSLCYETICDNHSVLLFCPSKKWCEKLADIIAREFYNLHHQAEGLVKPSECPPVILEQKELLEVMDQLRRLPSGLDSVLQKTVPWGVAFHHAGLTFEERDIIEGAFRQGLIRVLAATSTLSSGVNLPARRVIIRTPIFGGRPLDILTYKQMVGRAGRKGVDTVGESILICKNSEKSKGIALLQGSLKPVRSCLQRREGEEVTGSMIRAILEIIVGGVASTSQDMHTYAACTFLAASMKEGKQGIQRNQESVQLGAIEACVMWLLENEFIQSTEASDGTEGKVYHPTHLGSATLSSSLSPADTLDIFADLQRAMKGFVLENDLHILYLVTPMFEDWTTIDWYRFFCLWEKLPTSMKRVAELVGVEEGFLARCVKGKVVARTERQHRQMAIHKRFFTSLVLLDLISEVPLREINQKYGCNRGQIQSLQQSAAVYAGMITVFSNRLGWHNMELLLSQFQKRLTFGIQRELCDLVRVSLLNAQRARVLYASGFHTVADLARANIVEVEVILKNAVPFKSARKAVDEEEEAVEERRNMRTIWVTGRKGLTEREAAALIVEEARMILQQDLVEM
As usually defined, the IC50 is the point on the concentration scale where inhibition reaches its midpoint. Take `COc1cnc(Cl)cc1-c1cc(C)ncc1C(=O)Nc1nc2cnc(N3CC4(CCOC4)C3)nc2s1` [Example 82, 2′-chloro-5′-methoxy-6-methyl-N-(5-{6-oxa-2-azaspiro[3.4]octan-2-yl}-[1,3]thiazolo[5,4-d]pyrimidin-2-yl)-[4,4′-bipyridine]-3-carboxamide]: the IC50 is less than 0.1 µM.

Take `COc1cnc(Cl)cc1-c1cc(C)ncc1C(=O)Nc1nc2ccc(N3CCOCC3)cc2s1` [Example 17, 2′-chloro-5′-methoxy-6-methyl-N-[6-(morpholin-4-yl)-1,3-benzothiazol-2-yl]-[4,4′-bipyridine]-3-carboxamide]: the IC50 is less than 0.1 µM. Turning to `COc1ccccc1-c1cnccc1C(=O)Nc1nc2ccc(-c3ccc(Cl)cn3)cc2s1` [Example 39, N-[6-(5-chloropyridin-2-yl)-1,3-benzothiazol-2-yl]-3-(2-methoxyphenyl)pyridine-4-carboxamide], the half-inhibitory concentration (IC50) was in the range of 0.1 to 1 µM. As to `COc1cnc(Cl)cc1-c1cc(C)ncc1C(=O)Nc1nc2ccccc2s1` [Example 69, N-(1,3-benzothiazol-2-yl)-2′-chloro-5′-methoxy-6-methyl-[4,4′-bipyridine]-3-carboxamide], the IC50 was less than 0.1 µM. On to `COc1cnc(Cl)cc1-c1cc(C)ncc1C(=O)Nc1nc2ccc(C#N)cc2s1` [Example 3, 2′-chloro-N-(6-cyano-1,3-benzothiazol-2-yl)-5′-methoxy-6-methyl-[4,4′-bipyridine]-3-carboxamide], for which the IC50 is less than 0.1 µM. In the case of `COc1cnc(Cl)cc1-c1cc(C)ncc1C(=O)Nc1nc2cnc(N3CCNCC3)nc2s1` [Example 55, 2′-chloro-5′-methoxy-6-methyl-N-[5-(piperazin-1-yl)-[1,3]thiazolo[5,4-d]pyrimidin-2-yl]-[4,4′-bipyridine]-3-carboxamide], the half-maximal inhibitory concentration (IC50) is less than 0.1 µM.

On to `COc1cnc(Cl)cc1-c1cc(C)ncc1C(=O)Nc1nc2cnc(N3CCC(OC)CC3)nc2s1` [Example 80, 2′-chloro-5′-methoxy-N-[5-(4-methoxypiperidin-1-yl)-[1,3]thiazolo[5,4-d]pyrimidin-2-yl]-6-methyl-[4,4′-bipyridine]-3-carboxamide], for which the half-maximal inhibitory concentration (IC50) was less than 0.1 µM. For the compound `COc1cnc(Cl)cc1-c1cc(C)ncc1C(=O)Nc1nc2ccc(S(C)(=O)=O)cc2s1` [Example 2, 2′-chloro-N-(6-methanesulfonyl-1,3-benzothiazol-2-yl)-5′-methoxy-6-methyl-[4,4′-bipyridine]-3-carboxamide], the half-maximal inhibitory concentration (IC50) is less than 0.1 µM. Turning to `COc1cnc(Cl)cc1-c1cc(C)ncc1C(=O)Nc1nc2ccc(N3CCC(O)CC3)nc2s1` [Example 74, 2′-chloro-N-[5-(4-hydroxypiperidin-1-yl)-[1,3]thiazolo[5,4-b]pyridin-2-yl]-5′-methoxy-6-methyl-[4,4′-bipyridine]-3-carboxamide], the IC50 was less than 0.1 µM. `COc1ccccc1-c1cnccc1C(=O)Nc1nc2cc(Cl)ccc2s1` [Example 13, N-(5-chloro-1,3-benzothiazol-2-yl)-3-(2-methoxyphenyl)pyridine-4-carboxamide]: the half-inhibitory concentration (IC50) was greater than 1 µM. Consider `COc1cnc(Cl)cc1-c1cc(C)ncc1C(=O)Nc1nc2cnc(N3CCN(C)CC3)nc2s1` [Example 28, 2′-chloro-5′-methoxy-6-methyl-N-[5-(4-methylpiperazin-1-yl)-[1,3]thiazolo[5,4-d]pyrimidin-2-yl]-[4,4′-bipyridine]-3-carboxamide], for which the IC50 was less than 0.1 µM. In the case of `COc1cnc(Cl)cc1-c1cc(C)ncc1C(=O)Nc1nc2ccc(N3CCN(C)C3=O)cc2s1` [Example 58, 2′-chloro-5′-methoxy-6-methyl-N-[6-(3-methyl-2-oxoimidazolidin-1-yl)-1,3-benzothiazol-2-yl]-[4,4′-bipyridine]-3-carboxamide], the IC50 is less than 0.1 µM. On to `COc1cnc(Cl)cc1-c1cc(C)ncc1C(=O)Nc1nc2cnc(N3CCOCC3)nc2s1` [Example 22, 2′-chloro-5′-methoxy-6-methyl-N-[5-(morpholin-4-yl)-[1,3]thiazolo[5,4-d]pyrimidin-2-yl]-[4,4′-bipyridine]-3-carboxamide], for which the IC50 was less than 0.1 µM.

With `COc1cnc(Cl)cc1-c1cc(C)ncc1C(=O)Nc1nc2cnc(N3CC(OC)C3)nc2s1` [Example 47, 2′-chloro-5′-methoxy-N-[5-(3-methoxyazetidin-1-yl)-[1,3]thiazolo[5,4-d]pyrimidin-2-yl]-6-methyl-[4,4′-bipyridine]-3-carboxamide], the IC50 was less than 0.1 µM. For `COc1cnc(Cl)cc1-c1cc(C)ncc1C(=O)Nc1nc2ccc(Br)cc2s1` [Example 5, N-(6-bromo-1,3-benzothiazol-2-yl)-2′-chloro-5′-methoxy-6-methyl-[4,4′-bipyridine]-3-carboxamide], the concentration for half-maximal inhibition (IC50) was less than 0.1 µM.

As for `COc1cnc(Cl)cc1-c1cc(C)ncc1C(=O)Nc1nc2ccc(NS(C)(=O)=O)cc2s1` [Example 41, 2′-chloro-N-(6-methanesulfonamido-1,3-benzothiazol-2-yl)-5′-methoxy-6-methyl-[4,4′-bipyridine]-3-carboxamide], the half-maximal inhibitory concentration (IC50) is less than 0.1 µM. Regarding `COc1cnc(Cl)cc1-c1cc(C)ncc1C(=O)Nc1nc2ccc(N3CCN(C)CC3=O)cc2s1` [Example 86, 2′-chloro-5′-methoxy-6-methyl-N-[6-(4-methyl-2-oxopiperazin-1-yl)-1,3-benzothiazol-2-yl]-[4,4′-bipyridine]-3-carboxamide], the concentration for half-maximal inhibition (IC50) was less than 0.1 µM. Same read-out and setting: next, `COc1ccccc1-c1cnccc1C(=O)Nc1nc2ccc(Br)cc2s1` [Example 9, N-(6-bromo-1,3-benzothiazol-2-yl)-3-(2-methoxyphenyl)pyridine-4-carboxamide]: 0.1 to 1 µM.

Regarding `COc1cnc(Cl)cc1-c1cc(C)ncc1C(=O)Nc1nc2cnc(NC3CCC(O)CC3)nc2s1` (stereo not shown) [Example 48, 2′-chloro-N-{5-[(4-hydroxycyclohexyl)amino]-[1,3]thiazolo[5,4-d]pyrimidin-2-yl}-5′-methoxy-6-methyl-[4,4′-bipyridine]-3-carboxamide], the IC50 is less than 0.1 µM. On the same count and under the same terms, as for `COCCNc1ncc2nc(NC(=O)c3cnc(C)cc3-c3cc(Cl)ncc3OC)sc2n1` [Example 30, 2′-chloro-5′-methoxy-N-{5-[(2-methoxyethyl)amino]-[1,3]thiazolo[5,4-d]pyrimidin-2-yl}-6-methyl-[4,4′-bipyridine]-3-carboxamide], the figure is less than 0.1 µM; as for `COc1cnc(Cl)cc1-c1cc(C)ncc1C(=O)Nc1nc2ccc(N3CCCCC3=O)cc2s1` [Example 36B, 2′-chloro-5′-methoxy-6-methyl-N-[6-(2-oxopiperidin-1-yl)-1,3-benzothiazol-2-yl]-[4,4′-bipyridine]-3-carboxamide], less than 0.1 µM. The same measure, in the same setting: next, `COc1cnc(Cl)cc1-c1cc(C)ncc1C(=O)Nc1nc2cnc(C(F)(F)F)nc2s1` [Example 90, 2′-chloro-5′-methoxy-6-methyl-N-[5-(trifluoromethyl)-[1,3]thiazolo[5,4-d]pyrimidin-2-yl]-[4,4′-bipyridine]-3-carboxamide]: less than 0.1 µM.

Still in this experiment, the particulars now being: Table B; compounds of Experimental Part B, in vitro; read-out: Polθ ATPase assay IC50.
In the case of `COc1cnc(C)cc1-c1cc(C)ncc1C(=O)Nc1nc2cnc(N3CCC(O)CC3)nc2s1` [Example 117, N-[5-(4-hydroxypiperidin-1-yl)-[1,3]thiazolo[5,4-d]pyrimidin-2-yl]-5′-methoxy-2′,6-dimethyl-[4,4′-bipyridine]-3-carboxamide], the IC50 is less than 0.1 µM.

Regarding `COc1cnc(Cl)cc1-c1cc(C)ncc1C(=O)Nc1nc2c(OCC(N)=O)ncnc2s1` [Example 127, N-[7-(carbamoylmethoxy)-[1,3]thiazolo[5,4-d]pyrimidin-2-yl]-2′-chloro-5′-methoxy-6-methyl-[4.4′-bipyridine]-3-carboxamide], the IC50 was less than 0.1 µM. Turning to `COc1cnc(Cl)cc1-c1cc(C)ncc1C(=O)Nc1nc2ccc(NCCCCC(=O)O)nc2s1` [Example 120, 5-[(2-{2′-chloro-5′-methoxy-6-methyl-[4,4′-bipyridine]-3-amido}-[1,3]thiazolo[5,4-b]pyridin-5-yl)amino]pentanoic acid], the IC50 is less than 0.1 µM.

Regarding `COc1cnc(Cl)cc1-c1cc(C)ncc1C(=O)Nc1nc2cc(Br)ccc2s1` [Example 103, N-(5-bromo-1,3-benzothiazol-2-yl)-2′-chloro-5′-methoxy-6-methyl-[4,4′-bipyridine]-3-carboxamide], the 50% inhibitory concentration (IC50) was less than 0.1 µM. `CNC(=O)C(F)(F)Oc1ccc2sc(NC(=O)c3cnc(C)cc3-c3cc(Cl)ncc3OC)nc2c1` [Example 102, 2′-chloro-N-{5-[difluoro(methylcarbamoyl)Methoxy]-1,3-benzothiazol-2-yl}-5′-methoxy-6-methyl-[4,4′-bipyridine]-3-carboxamide]: the IC50 is less than 0.1 µM. In the case of `COc1cnc(Cl)cc1-c1cc(C)ncc1C(=O)Nc1nc2cc(OCCO)ccc2s1` [Example 124, 2′-chloro-N-[5-(2-hydroxyethoxy)-1,3-benzothiazol-2-yl]-5′-methoxy-6-methyl-[4,4′-bipyridine]-3-carboxamide], the concentration for half-maximal inhibition (IC50) is less than 0.1 µM. As to `COc1cnc(Cl)cc1-c1cc(C)ncc1C(=O)Nc1nc2cnc(NC[C@@H](C)O)nc2s1` [Example 95, 2′-chloro-N-(5-{[(2R)-2-hydroxypropyl]amino}-[1,3]thiazolo[5,4-d]pyrimidin-2-yl)-5′-methoxy-6-methyl-[4,4′-bipyridine]-3-carboxamide], the half-maximal inhibitory concentration (IC50) is less than 0.1 µM. Consider `COc1cnc(Cl)cc1-c1cc(C)ncc1C(=O)Nc1nc2c(CCC(=O)N(C)C)cccc2s1` [Example 100, 2′-chloro-N-{4-[2-(dimethylcarbamoyl)ethyl]-1,3-benzothiazol-2-yl}-5′-methoxy-6-methyl-[4,4′-bipyridine]-3-carboxamide], for which the IC50 is less than 0.1 µM.

On to `COc1cnc(Cl)cc1-c1cc(C)ncc1C(=O)Nc1nc2cc(OCc3nn[nH]n3)ccc2s1` [Example 121, 2′-chloro-5′-methoxy-6-methyl-N-{5-[(2H-1,2,3,4-tetrazol-5-yl)methoxy]-1,3-benzothiazol-2-yl}-[4,4′-bipyridine]-3-carboxamide], for which the half-inhibitory concentration (IC50) is less than 0.1 µM.
